The text below walks through data of patent US10640545B2 (THE GOVERNORS OF THE UNIVERSITY OF ALBERTA, priority 2017, dated 2020).

Where a SMILES comes first, the peptide text is derived from it. [ ]: non-standard residue; d: D form. Phe(4-Br) = N[C@@H](Cc1ccc(Br)cc1)C(=O)O; NMeL = CN[C@@H](CC(C)C)C(=O)O; Nle = CCCC[C@H](N)C(=O)O; Aib = CC(C)(N)C(=O)O

For orientation: half-life means the time in which the quantity being followed falls by half. The low end stands for rapid decline, the high end for slow decline. As a reminder, the amount remaining is the share of the starting amount still present when the sample was taken. Lower therefore signals a greater loss.

One data set has as its system anesthetized mice. The data set is described as follows: Blood pressure assay in anesthetized mice. It is filed as in vivo. The following applies: 1.4 μM/kg body weight injected, SBP, DBP, MABP. The essentials: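 Mice were anaesthetized with 1.5% isoflurane/oxygen and kept at 36 °C. Peptide (1.4 μM/kg body weight) or saline was injected via the right jugular vein. Arterial pressure and heart rate were recorded continuously through a catheter in the aorta via the right carotid artery over 60 min and reported as SBP, DBP, MABP and HR.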

Data set [1] addresses T1, KLKB1 (plasma kallikrein) (Homo sapiens, UniProt P03952).
T1 construct: purchased Novoprotein
The data set is described as follows: In vitro KLKB1 stability (half-life). It is filed as in vitro ADME. To be noted: human.

Another data set in a line: in vitro. To be noted: human, plasma.
In a further data set the test system is C57BL/6 mice. The data set is described as follows: Cardiac allograft vasculopathy, heterotopic heart transplant. It is filed as in vivo. To be noted: male hearts into female B6 mice, 3 mg/kg/d intraperitoneal for 4 weeks from 2 weeks after transplant. As to the method: B6 male hearts were transplanted heterotopically into […] female B6 of the recipient mice, starting 2 weeks after transplant. Synthesized apelin peptide (Apelin-NMe17A2) (11), was given by daily intraperitoneal injection (3 mg/kg/d) for 4 weeks. Female mice raise immune response against the male HY antigen, injure the coronary arteries of the transplanted heart based on Verhoeff-Van Gieson staining (FIG. 17) leading to progressive expansion of the arterial intima occluding the arterial lumen (FIG. 18).
C57BL/6J mice were purchased from Jackson Laboratories. The C57BL/6 mice subjected to surgery were 11-14 weeks old. All animal experiments were carried out according to the Canadian Council on Animal Care Guidelines. Animal protocols were approved by the Animal Care and Use Committee at the University of Alberta. Hearts from 12-14 weeks male wild-type (WT) donors were transplanted heterotopically to the abdomen of the female WT recipients. […] Cardiac allograft vasculopathy (CAV) was induced due to the presence of HY-minor histocompatibility antigen-directed, cell-mediated allo-immune response against the male donor hearts. The heart grafts were harvested six weeks after transplantation. Intima area, endothelial loss in medium to large-sized arteries, inflammatory cellular infiltration, microvasculature density and tip cell markers using Immunohistochemistry and qPCR were characterized.

The next data set deals with KLKB1 (Homo sapiens, UniProt P03952). The data set is described as follows: In vitro KLKB1 stability (half-life). It is filed as in vitro ADME. On the set-up: purchased Novoprotein. The following applies: rhKLKB1, 37° C.
Sequence of KLKB1 (P03952 20-638): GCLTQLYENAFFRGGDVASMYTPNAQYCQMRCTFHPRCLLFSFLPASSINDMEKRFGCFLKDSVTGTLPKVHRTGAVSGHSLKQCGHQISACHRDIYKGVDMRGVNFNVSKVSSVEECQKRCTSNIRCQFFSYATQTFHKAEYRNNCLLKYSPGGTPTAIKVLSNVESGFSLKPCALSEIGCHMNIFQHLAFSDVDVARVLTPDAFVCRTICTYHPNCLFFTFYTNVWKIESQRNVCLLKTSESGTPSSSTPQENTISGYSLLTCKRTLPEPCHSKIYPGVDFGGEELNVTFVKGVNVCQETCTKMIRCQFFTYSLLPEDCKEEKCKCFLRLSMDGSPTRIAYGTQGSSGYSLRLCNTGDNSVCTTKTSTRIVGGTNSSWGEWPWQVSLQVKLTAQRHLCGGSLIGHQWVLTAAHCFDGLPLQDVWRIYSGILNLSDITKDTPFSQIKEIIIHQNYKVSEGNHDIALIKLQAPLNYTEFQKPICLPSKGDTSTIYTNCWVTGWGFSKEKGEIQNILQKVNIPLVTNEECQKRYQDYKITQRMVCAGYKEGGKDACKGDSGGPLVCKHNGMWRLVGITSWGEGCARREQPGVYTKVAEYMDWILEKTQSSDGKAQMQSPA

T1 sequence (P03952 20-638): as above

`CCCC[C@H](NC(=O)[C@@H]1CCCN1C(=O)CNC(=O)[C@H](CCCCN)NC(=O)[C@H](Cc1c[nH]cn1)NC(=O)[C@H](CO)NC(=O)[C@H](CC(C)C)N(C)C(=O)[C@H](CCCNC(=N)N)NC(=O)[C@@H]1CCCN1C(=O)[C@H](CCCNC(=N)N)NC(=O)[C@H](CCC(N)=O)NC(=O)[C@H](CCCNC(=N)N)NC(=O)[C@H](CCCNC(=N)N)NC(=O)[C@H](Cc1ccccc1)NC(=O)[C@@H](N)CCCCN)C(=O)NC(C)(C)C(=O)N[C@@H](Cc1ccc(Br)cc1)C(=O)O` [Peptide 11] (H-KFRRQRPR[NMeL]SHKGP[Nle][Aib][Phe(4-Br)]-OH; C-terminus assumed): the “blood pressure lowering (hypotensive) effect” value with anesthetized mice was “potent hypotensive activity that rivaled or bested that of native 2 or A2 variant 5”. Also, in data set [1], the half-life is 54 min. In the data set “in vitro”, the amount remaining at 0.5 h, 80 µM turned out to be 49 ± 10% and the share remaining at 1 h, 80 µM stood at 47 ± 7%. In the data set with C57BL/6 mice, the “transplant arteriopathy (intima/lumen of coronary arteries)” value is recorded as “mitigates arteriopathy”.
For `CSCC[C@H](NC(=O)[C@@H]1CCCN1C(=O)CNC(=O)[C@H](CCCCN)NC(=O)[C@H](Cc1cnc[nH]1)NC(=O)[C@H](CO)NC(=O)[C@H](CC(C)C)NC(=O)[C@H](CCCNC(=N)N)NC(=O)[C@@H]1CCCN1C(=O)[C@H](CCCNC(=N)N)NC(=O)[C@H](CCC(N)=O)NC(=O)[C@H](CCCNC(=N)N)NC(=O)[C@H](CCCNC(=N)N)NC(=O)[C@H](Cc1ccccc1)NC(=O)[C@@H](N)CCCCN)C(=O)N1CCC[C@H]1C(=O)N[C@@H](Cc1ccccc1)C(=O)O` [Peptide 2, reference compound], the “t1/2 (rhKLKB1, h)” value on KLKB1 is on record as 0.4 h.
